Reference: patent US9528090B2, “Differentiation of human embryonic stem cells” (Janssen Biotech, Inc., priority 2010, dated 2016)

Key:
[1] = test system: human embryonic stem cells line H1; test: Definitive endoderm differentiation of H1 cells, single cell seeding (activin A/WNT-3a): real-time PCR gene expression; format: cell-based; settings: BSA medium
Description: (§1) Cells of the human embryonic stem cells line H1 (p40-p52) were seeded as single cells at a density of 100000 cells/cm^2 on MATRIGEL® (1:30 dilution) (BD Biosciences; Cat #356231)-coated dishes in MEF-CM (mouse embryonic fibroblast conditioned media) supplemented with 16 ng/ml of FGF2 (Catalog#100-18B, PeproTech, NJ) and 10 μM of Y27632 (Rock inhibitor, Catalogue#Y0503, Sigma, Mo.). 72 hrs post seeding, cultures were differentiated into definitive endoderm (DE) as follows: • a. MCDB-131 (Catalogue#10372-019, Invitrogen, CA) medium supplemented with 2% fatty acid-free BSA (Catalog#68700, Proliant, IA), 0.0025 g/ml sodium bicarbonate (Catalogue #S3187, Sigma, Mo.), 1× GlutaMax™ (Catalogue #35050-079, Invitrogen, Ca) and 100 ng/ml activin A (R&D Systems, MN) plus 20 ng/ml WNT-3a (Catalog#1324-WN-002, R&D Systems, MN) for one day, then • b. MCDB-131 medium supplemented with 2% BSA, sodium bicarbonate, Glutamax, and 100 ng/ml activin A for an additional three days.
In some of the cultures, the cells were treated with the following concentrations of insulin (Catalogue#19278, Sigma, Mo.): 0, 1, 10, 100, 1000, or 10000 ng/ml. At day 4, samples were collected for FACS and gene expression analysis using real-time PCR.

[2] = test system: human embryonic stem cells line H1; test: Definitive endoderm differentiation of H1 cells in FBS medium (GDF8/GSK3B inhibitor) with IGF or insulin: FACS and real-time PCR; format: cell-based; settings: in the presence of FBS, 10-100 ng/ml, day 4
Description: as §1, with “a. with” for “a.”, “0.2% FBS (Catalogue#SH30070.03, Hyclone, UT),” for “2% fatty acid-free BSA (Catalog#68700, Proliant, IA),”, “GDF8 (Catalogue#120-00, PeproTech, NJ)” for “activin A (R&D Systems, MN)”, “2.5 μM of the GSK3B inhibitor 14-Prop-2-en-1-yl-3,5,7,14,17,23,27-heptaazatetracyclo[19.3.1.1˜2,6˜0.1˜8,12˜]heptacosa-1(25),2(27),3,5,8(26),9,11,21,23-nonaen-16-one” for “20 ng/ml WNT-3a (Catalog#1324-WN-002, R&D Systems, MN)”, “FBS,” for “2% BSA,”, “GDF8” for “activin A”
0.5% FBS was used for day 2 and 2% FBS was used for days 3-4. Besides regular FBS, heat treated FBS (Catalogue#F4135, Sigma, Mo.) and charcoal stripped treated FBS (Catalogue#F6765, Sigma, Mo.) were also tested. Some of the FBS treated cultures were also treated with various concentrations of IGF (10-100 ng/ml) or insulin (10-100 ng/ml).
At day 4, samples were collected for analysis by FACS and real-time PCR.

insulin
expression of markers associated with definitive endoderm (FOXA2, SOX17, CER1, CXCR4) ([1]; 1-100 ng/ml insulin, day 4): did not significantly affect | expression of NANOG ([1]; 1-10 μg/ml of insulin): did increase expression | expression of the pluripotency marker NANOG [2]: upregulated | markers associated with definitive endoderm such as SOX17 and CCXR4 [2]: dose dependently down regulated
